Assay results reported in US8124793B2, “Derivatives of ethylene methanedisulfonate as cancer chemotherapeutic agents” (priority 2007, dated 2012).

How the values were obtained:
Type in all cases: cell-based
human cancer cells = assay: NCI screen summary over the cancers tested (negative growth of human cancer cells); conditions: cancers with negative growth / cancers tested
Experimental: (§1) In the NCI screening process, each compound was tested and described by a minimum of 60 data points. The test data include, but are not limited to the type of cancer, the molar concentration used in the screen, and the percent growth of the cancer. In some cases, NMR and elemental analysis were used for structural assignment.
The derivatives in the tables are grouped using the same category as in the tables 1-6.

HOP-18 = assay: NCI screen, growth of human tumor cells: Non-Small Cell Lung HOP-18
Experimental: as §1

EKVX = assay: NCI screen, growth of human tumor cells: Non-Small Cell Lung EKVX; conditions: EKVX
Experimental: as §1

NCI-H226 = assay: NCI screen, growth of human tumor cells: Non-Small Cell Lung NCI-H226
Experimental: as §1

HOP-62 = assay: NCI screen, growth of human tumor cells: Non-Small Cell Lung HOP-62; conditions: HOP-62 (Non-Small Cell Lung), 10^−4 molar
Experimental: as §1

SR = assay: NCI screen, growth of human tumor cells: Leukemia SR; conditions: SR (Leukemia), 10^−4 molar
Experimental: as §1

KM12 = assay: NCI screen, growth of human tumor cells: Colon Cancer KM12
Experimental: as §1

SF-295 = assay: NCI screen, growth of human tumor cells: CNS Cancer SF-295
Experimental: as §1

HOP-92 = assay: NCI screen, growth of human tumor cells: Non-Small Cell Lung HOP-92; conditions: HOP-92 (Non-Small Cell Lung), 10^−4 molar
Experimental: as §1

SF-539 = assay: NCI screen, growth of human tumor cells: CNS Cancer SF-539
Experimental: as §1

## C[Si](C)(OCCS(=O)(=O)[O-])C(=C1S(=O)(=O)OCCOS1(=O)=O)c1cccc2ccccc12.[Na+] [MWC 95-8]
Human cancer cells; 10^−4 M conc.
  Percentage of cancers showing negative growth cancers tested: 10^−4 M conc. = 0/1 = 0%

## Cc1ccc(S(=O)(=O)NC(=O)C2S(=O)(=O)OCCOS2(=O)=O)cc1 [NSC 648303, ethylene(4-methylbenzenesulfonamidocarbonyl)methanedisulfonate]
HOP-18; HOP-18, 10^−4 molar
  % Growth: 69%
HOP-18; HOP-18, 10^−5 molar
  % Growth: 43%
HOP-18; HOP-18, 10^−6 molar
  % Growth: 39%
HOP-18; HOP-18, 10^−7 molar
  % Growth: 33%
HOP-18; HOP-18, 10^−8 molar
  % Growth: 31%
Human cancer cells; 10^−4 M conc.
  Percentage of cancers showing negative growth cancers tested: 10^−4 M conc. = 0/3 = 0%
EKVX; 10^−4 molar
  % Growth: 59%
EKVX; 10^−5 molar
  % Growth: 66%
EKVX; 10^−6 molar
  % Growth: 69%
EKVX; 10^−7 molar
  % Growth: 67%
EKVX; 10^−8 molar
  % Growth: 57%
NCI-H226; NCI-H226, 10^−4 molar
  % Growth: 16%
NCI-H226; NCI-H226, 10^−5 molar
  % Growth: 37%
NCI-H226; NCI-H226, 10^−6 molar
  % Growth: 51%
NCI-H226; NCI-H226, 10^−7 molar
  % Growth: 55%
NCI-H226; NCI-H226, 10^−8 molar
  % Growth: 53%

## COC(=O)/C=C(\C(=O)OC)C1C(=O)Oc2c(C)c(=O)c3ccccc3n21 (stereo not shown) [NSC 670993]
HOP-62
  percent of growth of human tumor cells: −53%

## CCCCCCCCOCC1S(=O)(=O)OCCOS1(=O)=O [NSC 671535]
Human cancer cells; 10^−4 M conc.
  Percentage of cancers showing negative growth cancers tested: 10^−4 M conc. = 0/1 = 0%
SR
  percent of growth of human tumor cells: 5%

## O=C1c2ccccc2C(=O)N1CC1S(=O)(=O)OCCOS1(=O)=O [NSC 671536]
Human cancer cells; 10^−4 M conc.
  Percentage of cancers showing negative growth cancers tested: 10^−4 M conc. = 0/2 = 0%
KM12; KM12, 10^−4 molar
  % Growth: 50%
KM12; KM12, 10^−5 molar
  % Growth: 42%
KM12; KM12, 10^−6 molar
  % Growth: 39%
KM12; KM12, 10^−7 molar
  % Growth: 59%
KM12; KM12, 10^−8 molar
  % Growth: 40%
SR
  percent of growth of human tumor cells: 15%

## O=C(O)c1ccccc1C(=O)NCC1S(=O)(=O)OCCOS1(=O)=O [NSC 671537, ethylene (2-carboxy-benzoyl)-N-2-ethane-1,1-disulfonate]
Human cancer cells; 10^−4 M conc.
  Percentage of cancers showing negative growth cancers tested: 10^−4 M conc. = 0/1 = 0%
KM12; KM12, 10^−4 molar
  % Growth: 62%
KM12; KM12, 10^−5 molar
  % Growth: 54%
KM12; KM12, 10^−6 molar
  % Growth: 45%
KM12; KM12, 10^−7 molar
  % Growth: 61%
KM12; KM12, 10^−8 molar
  % Growth: 41%

## O=C(c1ccc2ccccc2c1)C1(I)S(=O)(=O)OCCOS1(=O)=O [NSC 679046]
SF-295; SF-295, 10^−4 molar
  % Growth: −52%
SF-295; SF-295, 10^−5 molar
  % Growth: −58%
SF-295; SF-295, 10^−6 molar
  % Growth: −65%
SF-295; SF-295, 10^−7 molar
  % Growth: −56%
SF-295; SF-295, 10^−8 molar
  % Growth: 51%
Human cancer cells; 10^−4 M conc.
  Percentage of cancers showing negative growth cancers tested: 100%
Human cancer cells; 10^−5 M conc.
  Percentage of cancers showing negative growth cancers tested: 100%
Human cancer cells; 10^−6 M conc.
  Percentage of cancers showing negative growth cancers tested: 100%
Human cancer cells; 10^−7 M conc.
  Percentage of cancers showing negative growth cancers tested: 100%
Human cancer cells; 10^−8 M conc.
  Percentage of cancers showing negative growth cancers tested: 0%

## CSC(=NC(=O)c1cn([C@H]2O[C@H](COC(C)=O)[C@H]3OC(C)(C)O[C@H]32)c2ccccc12)SC [NSC 732264]
HOP-92
  percent of growth of human tumor cells: 22%

## O=S1(=O)OCCCOS(=O)(=O)C1(Br)Br [compound 665940]
SF-539; SF-539, 10^−4 molar
  % Growth: 63%
SF-539; SF-539, 10^−5 molar
  % Growth: 99%
SF-539; SF-539, 10^−6 molar
  % Growth: 43%
SF-539; SF-539, 10^−7 molar
  % Growth: 62%
SF-539; SF-539, 10^−8 molar
  % Growth: 47%
